The results in this text go back to patent US12448383B2, “Compounds and methods for treatment of viral infections” (priority 2022, dated 2025).

SMILES strings stand for the structures.

The nature of data set [1]: Plasma stability. The settings on record: 37° C., 2 μM substrate. The format is in vitro ADME. Further details: unit not given here. The essentials:
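LC-MS (Q-Exactive, 5 ppm tolerance, 0.1% formic acid water/acetonitrile gradient) quantified compound in quenched aliquots. Aliquots were taken at 0.05, 0.5, 1, 2, 3 and 4 hr and quenched with internal-standard solution, and supernatants were diluted with water after centrifugation.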

The nature of data set [2]: Stability in pH2 buffered solution. The settings on record: pH2 phosphate buffer, 40° C. The format is physicochemical. The essentials: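 UPLC % area-normalized compound peak tracked over 24 hrs at 40° C. (0, 3, 6, 9, 12 and 24 hrs). Samples at 50 μg/mL, prepared from 1 mg/mL acetonitrile stock, in pH2 or pH7 50 mM phosphate/150 mM NaCl buffer.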
Data set [3] deals with Respiratory syncytial virus recombinant with luciferase (RSV-Luc5) in HEp-2 cells. Description: microbe, parasite or virus in culture. The format is cell-based. To be noted: human respiratory syncytial virus, HEp-2, 72 h, read-out: RSV Hep2 EC50.
A short description of data set [4]: GI S9 stability. The format is in vitro ADME. The settings on record: human, s9, pH 7.4.
Data set [5] deals with Caco-2 cells (clone C2BBe1). Description: CACO-2 permeability. The format is in vitro ADME. Further details: unit not given here. In short, it runs like this:
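A-to-B and B-to-A flux measured by LC-MS/MS from receiver samples taken at 1 and 2 h, with donor sampled at 0 and 2 h and recovery checked. Buffers: pH 6.5 HBSS with 200 μM BNPP on the donor side, pH 7.4 with BSA on the receiver side. Monolayers were 21-day cultures, TEER-verified, in duplicate wells.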

Turning to `CC(C)OC(=O)OC[C@H]1O[C@@](C#N)(c2ccc3c(N)ncnn23)[C@H](OC(=O)C(C)C)[C@@H]1OC(=O)C(C)C` [Compound 59, (2R,3R,4R,5R)-2-(4-aminopyrrolo[2,1-f][1,2,4]triazin-7-yl)-2-cyano-5-(((isopropoxycarbonyl)oxy)methyl)tetrahydrofuran-3,4-diyl bis(2-methylpropanoate)], in data set [1], the “STA Human Plasma 37” value worked out at 84.318. Besides, the “Stability at pH2, 0 hr” value in data set [2] (0 hr) turned out to be 100.0 % AN. For the same compound, the “Stability at pH2, 3 hr” value in data set [2] (3 hr) amounted to 100.0 % AN. The “Stability at pH2, 6 hr” value in data set [2] (6 hr) is on record as 100.0 % AN. Besides, the “Stability at pH2, 9 hr” value in data set [2] (9 hr) worked out at 100.0 % AN. In data set [2] (12 hr), the “Stability at pH2, 12 hr” value turned out to be 98.9 % AN. In addition, the “pH 2 Stability 24 h % AN” value in data set [2] (24 h, Table N2) amounted to 98 % AN. The “Stability at pH2, 24 hr” value in data set [2] (24 hr) is listed as 97.9 % AN. Besides, the half-maximal effective concentration (EC50) in data set [3] was 786 nM. Besides, the half-life at 2 µM in data set [4] came out at 1.44 min. Besides, the “DM Caco2 A to B” value in data set [5] (apical to basolateral, donor pH 6.5, receiver pH 7.4) worked out at 11.61. The “DM Caco2 B to A” value in data set [5] (basolateral to apical) amounted to 17.7.
